Entries after “also recorded” stand apart in the source; their conditions may differ.
Tests used:
[1] = test system: skin on the back of male or female guinea pigs; conditions: from U.S. Pat. No. 6,413,987; cited from earlier work
[2] = from U.S. Pat. No. 6,413,987; cited from earlier work
[3] = test system: skin on the back of male or female guinea pigs; assay: Dermal anesthetic activity, pin-prick method after dermal application; type: in vivo, guinea pig; conditions: for anesthetic score (dermal anesthetic effect, FIG. 1): after 30 min application, score = average number of six probings not producing a skin twitch, 10% solution of base in DMSO/water
Procedure: Approximately 18-24 hours before each experiment, the skin on the back of male or female guinea pigs was shaved and depilated with a commercially available hair remover. The anesthetic action of each agent following dermal application was determined using a “pin-prick” method as described by Aberg (Acta Pharmacol Toxicol, 1972, 31: 273-286). Before and at various intervals after treatment, the area of the skin was tested for the presence or absence of a skin twitch in response to six standardized dermal probings with a pointed metal “algesimeter” at a predetermined maximum load of 10 grams. The average number of probings not producing a skin twitch response was designated as the “anesthetic score”. In this test system no response to six stimuli represents a “maximal anesthetic activity”. In the present calculations, the dermal anesthetic activity was calculated from the time of removal of the test article formulation from the skin until skin twitch responses to all but one pinprick were identified. In experiments on the dermal anesthetic activity, a single area of skin 1 inch square was marked off on the middle of the back of each animal. This area was covered by a 1 inch square, 16 layer thick gauze pad onto which was deposited 0.45 ml of a 10% solution of the test agent dissolved in a mixture of water and DMSO. The gauze pad was covered with a 1.5 inch square sheet of Saran Wrap™ which was attached to the surrounding skin with tape. The entire area was then covered by wrapping an elastic bandage around the trunk of the animal. After a predetermined duration of treatment, the coverings were removed and the skin assessed for the presence of anesthesia as described above. Dermal anesthesia tests were performed at ten-minute intervals to measure onset time and duration of dermal anesthetic activity; comparisons were made with reference compounds and vehicle. All test compounds were in the base form and dissolved in DMSO/water when tested for dermal anesthesia.

Analgesic activity = assay: Analgesic activity; set-up: species or system rats; conditions: rat, in vivo
Procedure: Peripheral mononeuropathy is induced in rats by loose ligation of the sciatic nerve in anesthetized rats. Fourteen days later, the nociceptive threshold is evaluated after animal dosing with drug or vehicle, using graded paw pressure testing to assess hyperalgesia.
Diabetes is induced in rats by intraperitoneal injection of streptozotocin. Three weeks later, the nociceptive threshold is measured after animal dosing using the paw pressure to assess hyperalgesia.

Dermal / tissue toxicity = conditions: in vivo

Compound | local / dermal anesthetic activity [1] | tissue toxicity [2] | anesthetic score (dermal anesthetic effect, FIG. 1) [3] | onset of dermal anesthetic activity ([3]; comparison of the enantiomers of LAC-34) | duration of action (duration of anesthesia) ([3]; comparison with racemate and other enantiomer, same concentration) | analgesic activity (Analgesic activity) | dermal toxicity (Dermal / tissue toxicity)
c1ccc(N(CCC2CCCCN2)C2Cc3ccccc3C2)cc1 (racemic) [RS-LAC-34, 2-{2-[N-(2-indanyl)-N-phenylamino]ethyl}piperidine] | active local anesthetic compound | little, if any, tissue toxicity | – | – | – | – | –
c1ccc(N(CC[C@H]2CCCCN2)C2Cc3ccccc3C2)cc1 [R-LAC-34] | – | – | 3.5 | significantly shorter; also recorded: shorter onset of action | shorter duration of action | – | –
c1ccc(N(CC[C@@H]2CCCCN2)C2Cc3ccccc3C2)cc1 [S-LAC-34, S-2-{2-[N-(2-indanyl)-N-phenylamino]ethyl}piperidine] | – | – | 2.6 | – | – | expresses analgesic activity | low dermal toxicity

— patent US7718674B2, “Methods of relieving neuropathic pain with the S-isomer of 2-{2[N-(2-indanyl)-N-phenylamino]ethyl}piperidine” (Bridge Pharma, Inc., priority 2004, dated 2010)
